# Results taken from US12083178B2, “Anti-fibroblastic fluorochemical emulsion therapies” (priority 2010, dated 2024).
# Test: Treatment of a dog with soft tissue sarcoma and lung metastasis by pulmonary aerosol administration
# Type: in vivo, dog (Golden Retriever)
# Conditions: agent aerosolized alone, without emulsion; general observation
# Method: A 9 year old Golden Retriever with soft tissue sarcoma and extensive lung metastasis was treated with 9 mg/ml twice weekly for 10 weeks by pulmonary aerosol administration (FIG. 7A & FIG. 7B). […]
smiles,measurement,value
"Nc1ccn([C@@H]2O[C@H](CO)[C@@H](O)C2(F)F)c(=O)n1 [Gemcitabine, gemcitabine]",necrosis in lung parenchyma and pleural metastasis,severe necrosis is always observed
